Source: ChEMBL document CHEMBL1125250 (J Med Chem, 1991)

Experiments:
Aromatase = target: T1, Aromatase (Rattus norvegicus, UniProt P22443)
T1 sequence (P22443 whole entry): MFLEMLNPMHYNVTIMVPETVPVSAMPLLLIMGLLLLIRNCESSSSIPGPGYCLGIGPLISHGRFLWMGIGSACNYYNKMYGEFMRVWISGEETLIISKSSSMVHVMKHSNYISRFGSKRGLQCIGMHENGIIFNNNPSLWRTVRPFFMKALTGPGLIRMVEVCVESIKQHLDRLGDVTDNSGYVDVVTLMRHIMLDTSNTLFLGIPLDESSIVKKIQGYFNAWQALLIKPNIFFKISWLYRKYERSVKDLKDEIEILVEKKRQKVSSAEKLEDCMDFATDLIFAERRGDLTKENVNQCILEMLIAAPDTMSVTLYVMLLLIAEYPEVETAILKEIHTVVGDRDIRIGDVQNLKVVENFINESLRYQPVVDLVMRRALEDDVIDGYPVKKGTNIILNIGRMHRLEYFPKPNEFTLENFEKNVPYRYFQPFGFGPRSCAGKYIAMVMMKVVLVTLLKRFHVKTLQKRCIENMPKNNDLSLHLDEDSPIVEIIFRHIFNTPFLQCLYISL

[1] = target: T2, Cholesterol side-chain cleavage enzyme, mitochondrial (Homo sapiens, UniProt P05108); format: functional, Cricetulus griseus
T2 sequence (P05108 whole entry): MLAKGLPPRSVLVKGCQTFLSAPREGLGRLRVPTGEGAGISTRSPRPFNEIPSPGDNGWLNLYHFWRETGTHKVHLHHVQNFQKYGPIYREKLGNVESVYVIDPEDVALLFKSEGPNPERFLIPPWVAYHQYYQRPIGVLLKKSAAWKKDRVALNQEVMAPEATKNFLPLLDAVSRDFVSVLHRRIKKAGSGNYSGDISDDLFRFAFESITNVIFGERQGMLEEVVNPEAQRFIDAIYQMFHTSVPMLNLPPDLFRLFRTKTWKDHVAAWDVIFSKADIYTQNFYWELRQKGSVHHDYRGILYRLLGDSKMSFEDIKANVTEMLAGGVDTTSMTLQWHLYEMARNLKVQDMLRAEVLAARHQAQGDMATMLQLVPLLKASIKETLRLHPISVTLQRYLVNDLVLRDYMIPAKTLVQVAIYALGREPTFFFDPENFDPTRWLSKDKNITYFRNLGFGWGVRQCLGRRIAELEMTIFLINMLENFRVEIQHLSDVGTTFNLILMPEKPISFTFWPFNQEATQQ

SMILES	EDmin (Aromatase)	IC50 [1]
CCOC(=O)c1ccc(C2CCCc3cncn32)cc1.Cl (centres undefined)	> 10 µM/kg	
Brc1ccc(C2CCCc3cncn32)cc1.Cl (centres undefined)	0.5 µM/kg	
OCc1ccc(C2CCCc3cncn32)cc1 (centres undefined)	0.5 µM/kg	
CCC1(c2ccc(N)cc2)CCC(=O)NC1=O (centres undefined) [AMINOGLUTETHIMIDE]		80 µM
